One may read the Ki as the equilibrium dissociation constant of an inhibitor or competing ligand from its target.

The source of these data is patent US7446199B2, “Compositions useful as inhibitors of protein kinases” (Vertex Pharmaceuticals Incorporated, priority 2003, dated 2008).

What all share (format): biochemical
Assay [1] concerns the target c-Met (Homo sapiens, UniProt P08581). Nature of the assay: Ki determination for the inhibition of c-Met, coupled enzyme system. Particulars: 200 μM ATP, 10 μM polyGluTyr, 80 nM c-Met, 30° C. The method, then: Compounds were screened for their ability to inhibit c-Met kinase activity using a standard coupled enzyme system (Fox et al., Protein Sci. 1998, 7, 2249). Reactions were carried out in a solution containing 100 mM HEPES (pH 7.5), 10 mM MgCl2, 25 mM NaCl, 300 μM NADH, 1 mM DTT, and 1.5% DMSO. Final substrate concentrations in the assay were 200 μM ATP (Sigma Chemicals, St Louis, Mo.) and 10 μM polyGluTyr (Sigma Chemical Company, St. Louis). Reactions were carried out at 30° C. and 80 nM c-Met. Final concentrations of the components of the coupled enzyme system were 2.5 mM phosphoenolpyruvate, 300 μM NADH, 30 μg/ml pyruvate kinase and 10 μg/ml lactate dehydrogenase.
An assay stock buffer solution was prepared containing all of the reagents listed above with the exception of ATP and a test compound of the present invention. The assay stock buffer solution (175 μl) was incubated in a 96 well plate with 5 μl of the test compound of the present invention at final concentrations spanning 0.006 μM to 12.5 μM at 30° C. for 10 minutes. Typically, a 12-point titration was conducted by preparing serial dilutions (from 10 mM compound stocks) with DMSO of the test compounds of the present invention in daughter plates. The reaction was initiated by the addition of 20 μl of ATP (final concentration 200 μM). Rates of reaction were obtained using a Molecular Devices Spectramax plate reader (Sunnyvale, Calif.) over 10 minutes at 30° C. The Ki values were determined from the rate data as a function of inhibitor concentration.

The target in assay [2] is GSK-3β, (AA 1-420) (Homo sapiens, UniProt P49841). Put plainly: GSK-3 inhibition assay, coupled enzyme system. To be noted: 20 μM ATP, 300 μM peptide, 20 nM GSK-3b, 30° C.; read-out: Ki values (GSK3). The method, then:
Compounds of the present invention were screened for their ability to inhibit GSK-3β, (AA 1-420) activity using a standard coupled enzyme system (Fox et al., Protein Sci. 1998, 7, 2249). Reactions were carried out in a solution containing 100 mM HEPES (pH 7.5), 10 mM MgCl2, 25 mM NaCl, 300 μM NADH, 1 mM DTT and 1.5% DMSO. Final substrate concentrations in the assay were 20 μM ATP (Sigma Chemicals, St Louis, Mo.) and 300 μM peptide (American Peptide, Sunnyvale, Calif.). Reactions were carried out at 30° C. and 20 nM GSK-3b. Final concentrations of the components of the coupled enzyme system were 2.5 mM phosphoenolpyruvate, 300 μM NADH, 30 μg/ml pyruvate kinase and 10 μg/ml lactate dehydrogenase.
An assay stock buffer solution was prepared containing all of the reagents listed above with the exception of ATP and the test compound of the present invention. The assay stock buffer solution (175 μl) was incubated in a 96 well plate with 5 μl of the test compound of the present invention at final concentrations spanning 0.002 μM to 30 μM at 30° C. for 10 min. Typically, a 12 point titration was conducted by preparing serial dilutions (from 10 mM compound stocks) with DMSO of the test compounds of the present invention in daughter plates. The reaction was initiated by the addition of 20 μl of ATP (final concentration 20 μM). Rates of reaction were obtained using a Molecular Devices Spectramax plate reader (Sunnyvale, Calif.) over 10 min at 30° C. The Ki values were determined from the rate data as a function of inhibitor concentration.

The target of assay [3] is SYK (Homo sapiens, UniProt P43405). Put plainly: SYK enzyme assay, coupled enzyme assay. Particulars: 200 μM ATP, 4 μM poly Gly-Tyr peptide, 30° C. The method, then: Compounds were screened for their ability to inhibit SYK using a standard coupled enzyme assay (Fox et al., Protein Sci. 1998, 7, 2249). Reactions were carried out in 100 mM HEPES (pH 7.5), 10 mM MgCl2, 25 mM NaCl, 1 mM DTT and 1.5% DMSO. Final substrate concentrations in the assay were 200 μM ATP (Sigma chemical Co.) and 4 μM poly Gly-Tyr peptide (Sigma Chemical Co.). Assays were carried out at 30° C. and 200 nM SYK. Final concentrations of the components of the coupled enzyme system were 2.5 mM phosphoenolpyruvate, 300 μM NADH, 30 μg/ml pyruvate kinase and 10 μg/ml lactate dehydrogenase.
An assay stock buffer solution was prepared containing all of the reagents listed above, with the exception of SYK, DTT, and the test compound of interest of the present invention. 56 μl of the test reaction was placed in a 96 well plate followed by the addition of 1 μl of 2 mM DMSO stock containing the test compound of the present invnetion (final compound concentration 30 μM). The plate was pre-incubated for ˜10 minutes at 30° C. and the reaction initiated by the addition of 10 μl of enzyme (final concentration 25 nM). Rates of reaction were obtained using a BioRad Ultramark plate reader (Hercules, Calif.) over a 5 minute read time at 30° C., and Ki values for the compounds of the present invention were determined according to standard methods.

In assay [4] the target is T1, c-KIT (Homo sapiens, UniProt P10721).
T1 construct: 0.02% BSA and 25 nM c-KIT
T1 sequence (P10721 26-976): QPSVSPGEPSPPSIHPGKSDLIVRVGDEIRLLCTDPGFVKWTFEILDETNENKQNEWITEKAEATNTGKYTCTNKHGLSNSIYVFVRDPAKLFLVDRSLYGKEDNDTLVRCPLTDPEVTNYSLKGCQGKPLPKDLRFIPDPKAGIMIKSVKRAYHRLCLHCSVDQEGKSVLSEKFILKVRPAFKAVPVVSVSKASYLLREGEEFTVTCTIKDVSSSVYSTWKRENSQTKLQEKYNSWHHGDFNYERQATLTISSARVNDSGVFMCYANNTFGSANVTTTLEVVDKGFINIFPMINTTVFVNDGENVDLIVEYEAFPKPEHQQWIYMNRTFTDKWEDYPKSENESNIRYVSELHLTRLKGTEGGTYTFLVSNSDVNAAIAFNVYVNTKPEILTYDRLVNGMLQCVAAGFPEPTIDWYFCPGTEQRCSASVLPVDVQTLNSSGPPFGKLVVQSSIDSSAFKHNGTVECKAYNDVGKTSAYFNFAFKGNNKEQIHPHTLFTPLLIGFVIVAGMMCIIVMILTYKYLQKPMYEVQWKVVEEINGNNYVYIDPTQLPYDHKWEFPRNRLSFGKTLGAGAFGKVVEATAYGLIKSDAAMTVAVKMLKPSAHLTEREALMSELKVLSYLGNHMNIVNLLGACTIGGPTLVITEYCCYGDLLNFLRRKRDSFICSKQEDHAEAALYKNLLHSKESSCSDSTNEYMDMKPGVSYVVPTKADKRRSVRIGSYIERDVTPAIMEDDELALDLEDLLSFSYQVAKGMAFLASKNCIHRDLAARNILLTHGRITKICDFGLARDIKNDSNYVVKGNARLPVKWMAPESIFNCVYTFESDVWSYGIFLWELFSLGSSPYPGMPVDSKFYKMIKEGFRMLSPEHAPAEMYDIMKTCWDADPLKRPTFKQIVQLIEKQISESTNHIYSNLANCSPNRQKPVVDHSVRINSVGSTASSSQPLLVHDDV
Nature of the assay: Inhibition of c-KIT, radiometric filter-binding assay. To be noted: 700 μM ATP, 0.5 mg/mL pE4Y, room temperature. The method, then: Compounds are screened for their ability to inhibit c-KIT activity using a radiometric filter-binding assay. This assay monitors the ^33P incorporation into a substrate poly(Glu, Tyr) 4:1 (pE4Y). Reactions are carried out in a solution containing 100 mM HEPES (pH 7.5), 10 mM MgCl2, 25 mM NaCl, 1 mM DTT, 0.01% BSA and 2.5% DMSO. Final substrate concentrations in the assay were 700 μM ATP and 0.5 mg/mL pE4Y (both from Sigma Chemicals, St Louis, Mo.). The final concentration of compounds is generally between 0.01 and 5 μM. Typically, a 12-point titration is conducted by preparing serial dilutions from 10 mM DMSO stock of test compound. Reactions were carried out at room temperature.
Two assay solutions are prepared. Solution 1 contains 100 mM HEPES (pH 7.5), 10 mM MgCl2, 25 mM NaCl, 1 mg/ml pE4Y and 1.4 mM ATP(containing 0.5 μCi of [γ-^33P]ATP for each reaction). Solution 2 contains 100 mM HEPES (pH 7.5), 10 mM MgCl2, 25 mM NaCl, 2 mM DTT, 0.02% BSA and 25 nM c-KIT. The assay is run on a 96 well plate by mixing 33 μL of Solution1 and 1.65 μL of the test compounds. The reaction is initiated with 33 μL of Solution2. After incubation for 20 minutes at room temperature, the reaction was stopped with 50 μL of 10% TCA containing 0.2 mM of ATP. All of the reaction volume is then transferred to a filter plate and washed with 5% TCA by a Harvester9600 from TOMTEC (Hamden, Conn.). The amount of ^33P incorporation into pE4y is analyzed by a Packard TopCount Microplate Scintillation Counter (Meriden, Conn.). The data is fitted using Prism software to get an IC50 or Ki.

For assay [5], the target named is T2, JAK3 (Homo sapiens, UniProt P52333).
T2 sequence (P52333 1-1124): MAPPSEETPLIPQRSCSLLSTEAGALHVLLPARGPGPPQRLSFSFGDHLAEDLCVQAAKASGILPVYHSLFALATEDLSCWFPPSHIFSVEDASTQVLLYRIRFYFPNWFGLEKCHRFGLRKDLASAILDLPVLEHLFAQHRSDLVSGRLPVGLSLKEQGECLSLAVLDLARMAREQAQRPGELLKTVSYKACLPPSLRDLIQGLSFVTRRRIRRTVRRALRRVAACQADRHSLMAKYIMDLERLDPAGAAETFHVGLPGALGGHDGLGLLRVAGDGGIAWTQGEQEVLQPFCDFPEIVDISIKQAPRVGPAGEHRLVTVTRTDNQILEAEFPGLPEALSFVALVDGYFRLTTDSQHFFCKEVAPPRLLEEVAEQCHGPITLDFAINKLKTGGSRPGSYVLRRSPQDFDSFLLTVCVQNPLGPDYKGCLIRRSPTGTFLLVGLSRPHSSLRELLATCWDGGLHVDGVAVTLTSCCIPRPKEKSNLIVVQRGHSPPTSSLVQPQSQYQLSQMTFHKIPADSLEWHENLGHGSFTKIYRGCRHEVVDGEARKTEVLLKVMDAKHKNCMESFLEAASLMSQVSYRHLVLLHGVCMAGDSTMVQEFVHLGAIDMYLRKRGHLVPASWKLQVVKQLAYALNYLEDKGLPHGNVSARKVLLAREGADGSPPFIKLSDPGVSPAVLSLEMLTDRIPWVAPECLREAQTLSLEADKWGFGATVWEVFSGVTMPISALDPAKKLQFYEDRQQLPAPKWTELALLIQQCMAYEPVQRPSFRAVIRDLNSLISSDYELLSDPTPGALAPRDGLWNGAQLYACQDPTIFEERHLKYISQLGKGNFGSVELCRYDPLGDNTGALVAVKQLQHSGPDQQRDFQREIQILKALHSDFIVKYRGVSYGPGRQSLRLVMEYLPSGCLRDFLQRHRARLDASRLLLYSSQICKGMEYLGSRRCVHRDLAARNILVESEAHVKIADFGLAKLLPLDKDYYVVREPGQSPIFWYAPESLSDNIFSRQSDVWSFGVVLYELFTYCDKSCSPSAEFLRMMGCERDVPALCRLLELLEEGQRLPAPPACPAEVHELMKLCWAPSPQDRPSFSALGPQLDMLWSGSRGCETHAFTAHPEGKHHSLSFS
Nature of the assay: JAK3 inhibition assay (ELISA, Poly (Glu, Ala, Tyr) coated plates). Particulars: 2 mM ATP, 60 minutes at 30° C. The method, then:
Compound inhibition of JAK3 was assayed by the method described by G. R. Brown, et al., Bioorg. Med. Chem. Lett. 2000, vol. 10, pp 575-579 in the following manner. Into Maxisorb plates, previously coated at 4° C. with Poly (Glu, Ala, Tyr) 6:3:1 then washed with phosphate buffered saline 0.05% and Tween (PBST), was added 2 mM ATP, 5 mM MgCl2, and a solution of compound in DMSO. The reaction was started with JAK enzyme and the plates incubated for 60 minutes at 30° C. The plates were then washed with PBST, […] HRP-Conjugated 4G10 antibody was added, and the plate incubated for 90 minutes at 30° C. The plate was again washed with PBST, […] TMB solution is added, and the plates were incubated for another 30 minutes at 30° C. Sulfuric acid ([…] of 1M) was added to stop the reaction and the plate is read at 450 nm to obtain the optical densities for analysis to determine IC50 values.

Chain of c-Met (P08581 25-1390): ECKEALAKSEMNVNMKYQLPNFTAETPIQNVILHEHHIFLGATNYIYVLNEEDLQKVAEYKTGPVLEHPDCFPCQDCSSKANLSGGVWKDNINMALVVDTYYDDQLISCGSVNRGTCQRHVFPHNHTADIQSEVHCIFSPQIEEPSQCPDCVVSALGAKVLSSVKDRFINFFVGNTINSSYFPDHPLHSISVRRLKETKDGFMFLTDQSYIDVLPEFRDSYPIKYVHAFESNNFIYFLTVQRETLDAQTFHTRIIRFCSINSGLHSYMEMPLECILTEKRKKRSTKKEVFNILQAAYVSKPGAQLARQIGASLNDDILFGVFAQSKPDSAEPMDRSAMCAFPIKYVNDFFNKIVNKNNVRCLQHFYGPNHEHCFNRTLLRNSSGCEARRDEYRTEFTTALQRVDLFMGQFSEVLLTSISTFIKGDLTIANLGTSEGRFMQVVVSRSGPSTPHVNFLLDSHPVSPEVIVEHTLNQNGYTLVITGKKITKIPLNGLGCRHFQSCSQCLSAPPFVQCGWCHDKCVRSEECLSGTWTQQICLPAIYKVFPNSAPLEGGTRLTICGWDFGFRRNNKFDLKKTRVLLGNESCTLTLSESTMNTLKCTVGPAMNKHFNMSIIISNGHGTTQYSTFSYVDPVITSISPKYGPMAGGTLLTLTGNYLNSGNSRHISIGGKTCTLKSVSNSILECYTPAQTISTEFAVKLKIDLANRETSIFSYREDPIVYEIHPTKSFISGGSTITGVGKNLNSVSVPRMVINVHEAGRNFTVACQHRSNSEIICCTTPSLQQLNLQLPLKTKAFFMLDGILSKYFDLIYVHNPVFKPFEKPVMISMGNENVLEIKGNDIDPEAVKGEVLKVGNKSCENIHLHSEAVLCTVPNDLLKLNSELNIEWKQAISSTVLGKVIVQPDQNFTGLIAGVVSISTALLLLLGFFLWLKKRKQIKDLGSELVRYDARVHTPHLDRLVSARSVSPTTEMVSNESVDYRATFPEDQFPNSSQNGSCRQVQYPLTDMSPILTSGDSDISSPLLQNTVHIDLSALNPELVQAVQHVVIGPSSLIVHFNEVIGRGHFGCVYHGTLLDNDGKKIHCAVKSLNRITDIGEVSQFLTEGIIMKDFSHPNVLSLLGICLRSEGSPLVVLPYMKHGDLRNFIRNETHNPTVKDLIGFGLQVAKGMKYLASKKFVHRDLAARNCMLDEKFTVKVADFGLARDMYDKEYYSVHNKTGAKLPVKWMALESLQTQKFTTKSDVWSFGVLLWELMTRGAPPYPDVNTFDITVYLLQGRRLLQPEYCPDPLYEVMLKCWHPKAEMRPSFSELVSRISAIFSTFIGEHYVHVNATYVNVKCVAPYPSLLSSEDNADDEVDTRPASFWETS
Chain of GSK-3β, (AA 1-420) (P49841 whole entry, the tested form may be a part): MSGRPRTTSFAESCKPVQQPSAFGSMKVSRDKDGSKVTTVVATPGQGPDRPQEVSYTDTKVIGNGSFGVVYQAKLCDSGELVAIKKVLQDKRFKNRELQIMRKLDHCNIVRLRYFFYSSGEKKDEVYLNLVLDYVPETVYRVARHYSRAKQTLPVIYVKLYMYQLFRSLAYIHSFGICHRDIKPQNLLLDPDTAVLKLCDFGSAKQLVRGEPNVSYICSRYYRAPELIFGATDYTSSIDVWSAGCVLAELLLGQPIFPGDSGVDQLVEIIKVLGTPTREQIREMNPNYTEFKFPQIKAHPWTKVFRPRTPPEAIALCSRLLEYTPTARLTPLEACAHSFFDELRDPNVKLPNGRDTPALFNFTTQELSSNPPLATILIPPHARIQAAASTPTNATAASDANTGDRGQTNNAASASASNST

Turning to `Fc1cccc(-c2cnoc2-c2c[nH]c3ccccc23)c1F` [Compound 29, 3-[4-(2,3-Difluoro-phenyl)-isoxazol-5-yl]-1H-indole], the Ki in assay [1], in assay [2] and in assay [3] was 1000 to 12500 nM throughout.

`Fc1cccc(-n2cnnc2-c2c[nH]c3ncc(-c4ccc(N5CCC(N6CCCC6)CC5)nc4)cc23)c1F` [Compound 123, 5′-{3-[4-(2,3-Difluoro-phenyl)-4H-[1,2,4]triazol-3-yl]-1H-pyrrolo[2,3-b]pyridin-5-yl}-4-pyrrolidin-1-yl-3,4,5,6-tetrahydro-2H-[1,2′]bipyridinyl]: the Ki was 200 to 1000 nM in assay [4], less than 200 nM in assay [1] and 1000 to 12500 nM in assay [5].

Take `Fc1cccc(-n2cnnc2-c2c[nH]c3ncc(-c4ccc(NCC5CCCO5)nc4)cc23)c1F` (stereo not drawn) [Compound 124, (5-{3-[4-(2,3-Difluoro-phenyl)-4H-[1,2,4]triazol-3-yl]-1H-pyrrolo[2,3-b]pyridin-5-yl}-pyridin-2-yl)-(tetrahydro-furan-2-ylmethyl)-amine]: the Ki was 200 to 1000 nM in assay [4], less than 200 nM in assay [1] and 200 to 1000 nM in assay [5].

In the case of `CN(C)c1ccc(-c2cnc3[nH]cc(-c4nncn4-c4cccc(F)c4F)c3c2)cc1N` [Compound 130, 4-{3-[4-(2,3-Difluoro-phenyl)-4H-[1,2,4]triazol-3-yl]-1H-pyrrolo[2,3-b]pyridin-5-yl}-N^1,N^1-dimethyl-benzene-1,2-diamine], the results for the Ki in assay [4], in assay [1] and in assay [5] were less than 200 nM, less than 200 nM and 200 to 1000 nM, respectively.

Take `OCC1CCN(c2ccc(-c3cnc4[nH]cc(-c5nncn5-c5cccc(F)c5F)c4c3)cn2)CC1` [Compound 120, (5′-{3-[4-(2,3-Difluoro-phenyl)-4H-[1,2,4]triazol-3-yl]-1H-pyrrolo[2,3-b]pyridin-5-yl}-3,4,5,6-tetrahydro-2H-[1,2′]bi-pyridinyl-4-yl)-methanol]: the figures for the Ki in assay [4], in assay [1] and in assay [5] were 200 to 1000 nM, less than 200 nM and 1000 to 12500 nM, respectively.
